Source: a melting point compilation (Tetko et al.; mined from patent text by program, amines drawn as free bases though some values may be those of a salt)

| SMILES | melting point |
| --- | --- |
| O=C(O)Cc1cccc2c1ccn2Cc1ccccc1 | 138 to 140 °C |
| CN1Cc2cccnc2N(c2cccc(C(F)(F)F)c2)C1=O | 122 to 124 °C |
| CCCCCCCCCCS(=O)(=O)CCCOCCn1c(CCC)nc2c(N)nc3ccccc3c21 | 84 to 86 °C |
| CC(C)c1ccc(CN(C(=N)N)c2ccc3c4c(cccc24)CC3)cc1 | 153 to 155 °C |
| Cc1cccc(-c2n[nH]cc2-c2ccc(F)c(-c3ccc4c(c3)CCS4(=O)=O)c2)n1 | 107 to 109 °C |
| Cc1cc(C)c2c(c1)C(=O)C1(CCNCC1)CC2 | > 260 °C |
| CS(=O)(=O)c1ccc(-c2cc(-c3ccc(F)cc3)n3c2CCC3)cc1 | 176 to 179 °C |
| COc1ccc2c(c1)[C@](C)(NC(=O)c1cc3ccccc3[nH]1)C(=O)N2c1ccc(F)cc1 | 287 to 288 °C |
| COC(=O)C1=C(C)NC(C)=C(C(=O)O)C1c1cccc([N+](=O)[O-])c1 (stereo not given) | 196 to 197 °C |
| CCCCc1nc(C(O)c2ccccc2)c(C(=O)O)n1Cc1ccc(-c2ccccc2C(=O)O)cc1 (stereo not given) | 192 to 194 °C |
| COc1cc(O)c2c(=O)c(OC)c(-c3ccc(O)cc3)oc2c1 | 252 to 253 °C |
| CN1CCN(c2ccc([N+](=O)[O-])cn2)CC1 | 75 to 76 °C |
| CCCCSc1nc(=O)[nH]cc1F | 113 °C |
| O=C(NC1CCC2(O)C3Cc4ccc(O)c5c4C2(CCN3CC2CC2)C1O5)c1ccccc1 (stereo not given) | 182 to 185 °C |
| Cc1nc2c(OCc3ccccc3)nccc2n1C | 115 to 116 °C |
| Cc1cc(NC(=O)c2ccc(C(=O)N3CCN(c4ncccc4NC(C)C)CC3)nc2)n[nH]1 | 116 to 117 °C |
| COc1cc2cc(C(=O)Nc3cc(OCc4ccccc4)c4ccccc4c3CCCl)[nH]c2c(OC)c1OC | 180 to 184 °C |
| O=c1cc(-c2ccncn2)nc2n1CCC1(CCNC1)N2 (stereo not given) | 226 to 228 °C |
| Cn1c(=O)c2cnccc2n(C)c1=O | 174 to 175 °C |
| Cn1cc(-c2cc(Cl)cc(Cl)c2)c(=O)c(-c2cc(Cl)cc(Cl)c2)c1 | 275 to 278 °C |
| CC(=O)c1c[nH]c2cc(-c3ccncc3)ccc2c1=O | > 300 °C |

| SMILES | melting point |
| --- | --- |
| COc1cc(/C=C/CO)cc(OC)c1OCc1ccccc1 | 72 to 73 °C |
| COc1ccc2cc3ccccc3cc2c1 | 182 to 184 °C |
| O=S(=O)(c1c(F)c(F)c(F)c(F)c1F)N1CCCC(c2ccc(F)cc2)=N1 | 140 to 141 °C |
| CCOP(=S)(OCC)Oc1nsc(SCc2ccccc2)n1 | < 50 °C |
| COc1ccc(CCCOc2ccc(C(=O)O)cc2)cc1OC | 150 to 154 °C |
| COc1cnccc1C(C)=O | 36 to 37 °C |
| COc1cc(C(F)(F)F)nc(S(C)(=O)=O)n1 | 88 to 90 °C |
| CCc1cn(C2CC(O)(C(C)=O)C(CO)O2)c(=O)[nH]c1=O (stereo not given) | 150 °C |
| O=C(O)c1ccnc2[nH]ccc12 | > 300 °C |
| CCN1C(=O)C(C)(C)C(=O)N(C)c2cc(CN(CCc3ccc(C)nc3C)Cc3scnc3C)ccc21 | 136 to 137 °C |
| CCc1cc(-c2ccc(OC)cc2)n(-c2ccc(S(N)(=O)=O)cc2)c1 | 154 to 156 °C |
| COc1cc(Nc2nccc(-c3ccc(NCCCN)nc3)n2)cc(OC)c1OC | 152 to 153 °C |
| COc1ccccc1-n1nnc2cc(F)c(N3C(=O)C4=C(CCCC4)C3=O)cc21 | 83 to 87 °C |
| O=C(OC1CCCCC1)c1ncn2c1[C@@H]1CCCN1C(=O)c1c(Br)cccc1-2 | 167 to 168 °C |
| CC(CC(=O)O)C(=O)c1ccc(C(=O)C(C)CC(=O)O)cc1 (stereo not given) | 195 to 202 °C |
| Nc1nc(I)nc2c1ncn2C1OC(CO)C(O)C1O (stereo not given) | 141 to 144 °C |
| COc1ccc(/C=C/C(=O)C2C(=O)CC(c3ccc(OC)cc3)C([N+](=O)[O-])C2c2cccc([N+](=O)[O-])c2)cc1 (stereo not given) | 204 to 206 °C |
| Cc1oc(-c2ccc3ccccc3c2)nc1COc1ccc(COc2ncccc2CO)cc1 | 161 to 162 °C |
| COc1ccc2cc(NC(C)=O)c3ccc(C)cc3c2c1OC | 190 to 192 °C |
| CC(C)c1cc(C(=O)Nc2ccc(C(=O)O)cc2)sc1C(C)C | 219 to 221 °C |
| CCOC(=O)C(=O)Nc1ccc2ccccc2c1[N+](=O)[O-] | 139 to 140 °C |

| SMILES | melting point |
| --- | --- |
| CCCOCCCCCCCCCC(=O)O | < 30 °C |
| CCCCCCCCOc1ccc(-n2nc3ccc(C(F)(F)F)cc3n2)c(O)c1 | 79 to 81 °C |
| COC(=O)N(C(=O)Cl)c1ccc(OC(F)(F)F)cc1 | 97 to 99 °C |
| COc1ccc2c(c1O)C13CCN(C)C(C2)C1CC(C)C(=O)C3 (stereo not given) | 166 to 167 °C |
| Cc1cc(Oc2ccc(C(F)(F)F)cc2Cl)cc(Cl)n1 | 75 °C |
| CNc1nc(=O)c2cccnc2n1Cc1ccc(F)cc1 | 242 to 246 °C |
| COc1cc(C=O)c([N+](=O)[O-])c(OC)c1 | 104 to 105 °C |
| COc1cc2c(=O)c3c(Cl)ccc([N+](=O)[O-])c3[nH]c2cc1Cl | 284 to 285 °C |
| COC(=O)[C@H]1NC(=O)[C@H]1NC(=O)Cc1cccs1 (relative stereo) | 133 to 136 °C |
| CC(C)(C)[Si](C)(C)Oc1ccc2[nH]nc(N3C(=O)c4ccccc4C3=O)c2c1 | 225 to 228 °C |
| COC(=O)c1ccc2cc(OCC(=O)O)ccc2c1 | > 285 °C |
| C=Cc1ccc(CCOC(=O)CC(C)NC(N)=O)cc1 (stereo not given) | 117 to 119 °C |
| O=C(O)C1CCCN1c1ncccc1[N+](=O)[O-] (stereo not given) | 137 to 139 °C |
| Cc1csc(=S)n1-c1ccc(F)cc1N | 138 °C |
| CNC(=O)N1CC(Oc2ccc(C(F)(F)F)cc2)C1 | 154 to 157 °C |
| N#Cc1cc(-c2cc(C(F)F)c3c(-c4cccnc4)n[nH]c3n2)ccc1N | 296 °C |
| Cn1c(COc2ccc(CC(OCc3ccc(F)cc3)C(=O)O)cc2)nc2ccc(Sc3cc(C(C)(C)C)c(O)c(C(C)(C)C)c3)cc21 (stereo not given) | 40 to 46 °C |
| CCN(CC)S(=O)(=O)c1cc(Br)c(N)c(Br)c1 | 186 to 187 °C |
| CCOC(=O)Cc1cccc2c(-c3ccccc3)nccc12 | 141 °C |
| CCOC(Cc1ccc(NC/C=C/c2ccc(OS(C)(=O)=O)cc2)cc1)C(=O)O (stereo not given) | 146 to 148 °C |
| O=C(O)COc1ccc(C(=O)Nc2cccc(Cl)c2Cl)cc1 | 153 to 157 °C |

Further lines, results first:

| melting point | SMILES |
| --- | --- |
| 187 to 188 °C | Cc1ccn(-c2ccc(C(=O)N3Cc4ccnn4Cc4ccccc43)c(Cl)c2)n1 |
| 165 to 167 °C | O=C(CC1CCCC1)NC[C@H]1CN(c2ccc3c(c2)CCCc2cnn(C(=O)CC4CCCC4)c2-3)C(=O)O1 |
| 158 to 166 °C | O=C1N(CC2CCCCO2)c2ccccc2C12COc1cc3c(cc12)OCCO3 (stereo not given) |
| 68 °C | CCC(=O)C(CCCOc1ccc2c(c1)OCO2)C(=O)CC |
| 152 to 155 °C | CCOC(=O)c1cnc2n(c1=O)-c1ccccc1N(C(C)=O)C2 |
| 121 to 125 °C | O=C1NCCN1Cc1cccc2ccccc12 |
| 86 to 87 °C | Clc1ccc(C(CBr)OC2CCCC(COc3ccc(Cl)cc3Cl)O2)cc1 (stereo not given) |
| 223 to 224 °C | CCCCNc1cc(C(N)=O)cc(S(N)(=O)=O)c1Oc1ccccc1 |
| 231 to 234 °C | N#Cc1ccc2c([N+](=O)[O-])cc3c(c2c1)C(CCl)CN3 (stereo not given) |
| 135 to 138 °C | NC(=O)C(c1ccccc1)(c1ccccc1)C1CCN(Cc2ccccc2)C1 (stereo not given) |
| 127 to 129 °C | COc1ccccc1SCC1SCCN1C(=O)CCl (stereo not given) |
| 115 to 117 °C | CCc1nc2c(cnn2CC)c(NC2CCOCC2)c1CNC(=O)c1cccc(C(=O)NCc2ccc(Cl)c(Br)c2)c1 |
| 190 to 191 °C | COC1CC(C(=O)O)Cc2onc(-c3ccc(Cl)cc3)c21 (stereo not given) |
| 202 to 203 °C | Cc1c(C)c2ccc(CCCCCN3CCN(c4cccc(Cl)c4Cl)CC3)nc2[nH]c1=O |
| 238 °C | CN1Cc2c(C#N)ccc3scc(c23)S1(=O)=O |
| 227 to 229 °C | COc1cc2c(cc1-c1cccnc1)-c1c(-c3cncs3)c3c(n1CC2)C(=O)N(C(C)(C)C)CCCC3 |
| 77 to 80 °C | Fc1cc(I)ccc1Nc1c(-c2nnc(NCCN3CCOCC3)o2)ccc(F)c1F |
| 230 °C | CCn1cc(C(=O)O)c(=O)c2cc(Cl)c(N3CCCCC3)cc21 |
| 126 to 129 °C | N#Cc1ccc(N2CC=C(N3CCCC3)CC2)cc1 |

| melting point | SMILES |
| --- | --- |
| 162 to 164 °C | CCOC(=O)c1c[nH]c(SC(F)(F)F)c1-c1ccc(Cl)cc1 |
| 82 to 85 °C | CCCC(CCC)n1ccc(=O)c2c(Cl)cc(C)nc21 |
| 236 to 237 °C | NS(=O)(=O)c1cc(C(=O)O)cc(S(=O)(=O)Cc2ccccc2)c1Cl |
| 157 to 160 °C | O=C(NCC1CCCCC1)c1c(Cl)ccc2nc(N3CCC[C@@H]3C(=O)O)ccc12 |
| 124 to 125 °C | OCCCCCCCCN1CCC(C(O)(c2ccc(F)cc2)c2ccc(F)cc2)CC1 |
| 160 to 161 °C | O=C(O)[C@@H]1CCCN1C(=O)C(Sc1nc2cc(Cl)ccc2s1)c1ccccc1 (stereo not given in full) |
| 127 to 128 °C | N#CCCn1cccc1C1=CC(=O)c2ccccc2C1=O |
| 215 to 220 °C | CCN1CCOc2cc(Nc3ncc(Cl)c(Nc4ccccc4C(=O)NC)n3)ccc2C1=O |
| 116 to 120 °C | CC(C)C[C@H](NC(=O)C1CCCCC1)C(=O)N[C@@H](C(C)C)[C@@H](O)c1c(-c2ccccc2)c1=O |
| 62 to 71 °C | Cc1cc(OCCC#Cc2ccc(OC(F)(F)F)cc2)ccc1OC(C)(C)C(=O)O |
| 190 °C | O=C(Nc1cc(Cl)ccn1)c1ccn2c1CSC2c1cccnc1 (stereo not given) |
| 109 to 111 °C | N#CCc1c[nH]c2ccc(CCS(N)(=O)=O)cc12 |
| 101 to 103 °C | N#CCCN1CCC(COC(=O)c2cc(Cl)c(N)c3c2OCCO3)CC1 |
| 209 °C | CCN1CCc2ccc(Nc3ncc(Cl)c(N[C@@H]4c5ccccc5C[C@@H]4O)n3)cc2CC1 |
| 145 to 147 °C | CCOc1ccc(C2=NNC(=O)[C@H]3CC=CC[C@@H]23)cc1OCC (relative stereo) |
| > 235 °C | O=C(O)c1ccc2c(Cl)ccnc2c1 |
| 89 to 91 °C | COc1ccc(CC([N+](=O)[O-])C2(CCCCc3ccc(C)cc3)OCCO2)cc1OC (stereo not given) |
| 176 to 178 °C | CCCCOC(=O)Cc1cc2c(s1)CCN(C(=O)[C@H](Cc1ccc(O)cc1)NC(=O)c1ccc(C(=N)N)cc1)C2 |
